The record followed here is PMC2651632 (Biochemistry, 2008).

The target in the test is T1, reconstituted ATase (ATN6-ATC3 complex) (Escherichia coli, UniProt P30870).
T1 sequence (P30870 1-608): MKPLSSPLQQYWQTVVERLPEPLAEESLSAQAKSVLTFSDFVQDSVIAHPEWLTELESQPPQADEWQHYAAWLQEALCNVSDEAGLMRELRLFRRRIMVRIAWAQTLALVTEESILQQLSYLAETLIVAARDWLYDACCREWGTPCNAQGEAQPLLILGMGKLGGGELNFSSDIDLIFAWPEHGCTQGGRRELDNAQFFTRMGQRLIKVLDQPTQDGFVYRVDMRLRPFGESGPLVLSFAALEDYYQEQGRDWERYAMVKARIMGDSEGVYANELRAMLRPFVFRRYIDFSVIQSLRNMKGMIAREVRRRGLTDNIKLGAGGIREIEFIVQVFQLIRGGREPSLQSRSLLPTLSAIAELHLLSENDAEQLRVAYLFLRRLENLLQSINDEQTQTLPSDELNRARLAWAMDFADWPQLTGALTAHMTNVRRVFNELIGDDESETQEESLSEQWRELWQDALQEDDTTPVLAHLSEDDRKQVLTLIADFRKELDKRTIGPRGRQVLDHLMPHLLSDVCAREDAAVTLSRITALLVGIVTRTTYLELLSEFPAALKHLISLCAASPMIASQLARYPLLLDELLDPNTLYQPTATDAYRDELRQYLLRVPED
T1 sequence (P30870 609-946 partner): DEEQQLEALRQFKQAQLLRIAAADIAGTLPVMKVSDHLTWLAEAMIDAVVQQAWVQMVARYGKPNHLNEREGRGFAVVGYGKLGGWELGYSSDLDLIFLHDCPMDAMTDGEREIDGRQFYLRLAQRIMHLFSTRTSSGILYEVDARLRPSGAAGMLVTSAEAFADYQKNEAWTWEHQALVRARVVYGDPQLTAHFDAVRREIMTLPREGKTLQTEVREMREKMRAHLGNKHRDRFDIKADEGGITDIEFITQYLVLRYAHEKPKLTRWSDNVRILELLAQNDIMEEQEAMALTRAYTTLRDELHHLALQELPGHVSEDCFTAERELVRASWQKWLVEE
The test is described as follows: initial rate of GS adenylylation, […] incorporation from [alpha-32P]ATP. In kind it is biochemical.

In general, EC50 refers to the concentration at which the effect is half-maximal. A lower EC50 goes with higher potency in that assay.

`NC(=O)CC[C@H](N)C(=O)O` [glutamine] gave an EC50 of approximately 7 mM.
